Results reported in US20150105252A1, “SUBSTITUTED PYRAZOLES AS HERBICIDES” (E I DU PONT DE NEMOURS AND COMPANY, priority 2013, published 2015).

How the values were obtained:
windgrass [1] = assay: Test C postemergence; type: in vivo, Apera spica-venti; conditions: 62 g ai/ha, scale 0 to 100
windgrass [2] = assay: Test C postemergence; type: in vivo, Apera spica-venti; conditions: 125 g ai/ha, scale 0 to 100, 0 no effect, 100 complete control
canarygrass = assay: Test D preemergence; type: in vivo, Phalaris minor; conditions: Preemergence, scale 0 to 100
Procedure, shortened: (§1)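 Scores of 0 (no effect) to 100 (complete control) come from visual comparison with untreated plants 14–21 days after spraying. Applications were made pre-emergence to silt loam or post-emergence to plants 2–18 cm tall.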

kochia [3] = assay: Test D preemergence; type: in vivo, Kochia scoparia; conditions: Preemergence, scale 0 to 100
Excerpt: (§2) Seeds of plant species selected from bluegrass (annual bluegrass, Poa annua), blackgrass (Alopecurus myosuroides), canarygrass (littleseed canarygrass, Phalaris minor), chickweed (common chickweed, Stellaria media), galium (catchweed bedstraw, Galium aparine), bromegrass, downy (downy bromegrass, Bromus tectorum), field poppy (Papaver rhoeas), field violet (Viola arvensis), foxtail, green (green foxtail, Setaria viridis), deadnettle (henbit deadnettle, Lamium amplexicaule), ryegrass, Italian (Italian ryegrass, Lolium multiflorum), kochia (Kochia scoparia), lambsquarters (Chenopodium album), oilseed rape (Brassica napus), pigweed (redroot pigweed, Amaranthus retroflexus), chamomile (scentless chamomile, Matricaria inodora), speedwell (bird's-eye speedwell, Veronica persica), barley, spring (spring barley, Hordeum vulgare), wheat, spring (spring wheat, Triticum aestivum), buckwheat, wild (wild buckwheat, Polygonum convolvulus), mustard, wild (wild mustard, Sinapis arvensis), oat, wild (wild oat, Avena fatua), radish, wild (wild radish, Raphanus raphanistrum), windgrass (Apera spica-venti), Russian thistle (Salsola kali), barley, winter (winter barley, Hordeum vulgare), and wheat, winter (winter wheat, Triticum aestivum) were planted into a silt loam soil and treated preemergence with test chemicals formulated in a non-phytotoxic solvent mixture which included a surfactant.
(§3) At the same time, these species were planted in pots containing Redi-Earth® planting medium (Scotts Company, 14111 Scottslawn Road, Marysville, Ohio 43041) comprising spaghnum peat moss, vermiculite, wetting agent and starter nutrients and treated with postemergence applications of the test chemicals formulated in the same manner. Plants ranged in height from 2 to 18 cm (1- to 4-leaf stage). Treated plants and controls were maintained in a controlled growth environment for 14 to 21 days after which time all species were compared to controls and visually evaluated. Plant response ratings, summarized in Table D, are based on a scale of 0 to 100 where 0 is no effect and 100 is complete control. A dash (-) response means no test result.

radish, wild = assay: Test D postemergence; type: in vivo, Raphanus raphanistrum; conditions: scale 0 to 100
Procedure, shortened: as §1

ryegrass, Italian = assay: Test D postemergence; type: in vivo, Lolium multiflorum; conditions: scale 0 to 100
Procedure, shortened: as §1

chamomile = assay: Test D postemergence; type: in vivo, Matricaria inodora; conditions: scale 0 to 100
Excerpt: as §2, §3

buckwheat, wild = assay: Test D preemergence; type: in vivo, Polygonum convolvulus; conditions: Preemergence, scale 0 to 100
Procedure, shortened: as §1

kochia [4] = assay: Test D postemergence; type: in vivo, Kochia scoparia; conditions: scale 0 to 100
Excerpt: as §2, §3

speedwell [5] = assay: Test D postemergence; type: in vivo, Veronica persica; conditions: scale 0 to 100
Excerpt: as §2, §3

field violet = assay: Test D preemergence; type: in vivo, Viola arvensis; conditions: Preemergence, scale 0 to 100
Excerpt: as §2, §3

lambsquarters = assay: Test D postemergence; type: in vivo, Chenopodium album; conditions: scale 0 to 100
Procedure, shortened: as §1

speedwell [6] = assay: Test D preemergence; type: in vivo, Veronica persica; conditions: Preemergence, scale 0 to 100
Procedure, shortened: as §1

windgrass [7] = assay: Test D preemergence; type: in vivo, Apera spica-venti; conditions: Preemergence, scale 0 to 100
Excerpt: as §2, §3

Compound: CCONC(=O)c1cc(CC)n(Cc2cccc(OC(F)(F)F)c2)n1 [Compound 72]
- Windgrass plant response rating (windgrass [1]): 20
- Plant response rating, Windgrass (windgrass [2]): 25

Compound: CCCc1cc(C(=O)NC2CC2)nn1Cc1cc(C(F)(F)F)nn1C [Compound 202]
- Plant response rating, Canarygrass (canarygrass; 31 g ai/ha): 10
- Plant response rating, Canarygrass (canarygrass; 62 g ai/ha): 40
- Plant response rating, Canarygrass (canarygrass; 125 g ai/ha): 75
- Plant response rating, Canarygrass (canarygrass; 250 g ai/ha): 85
- Plant response rating, Kochia (kochia [3]; 62 g ai/ha): 100
- Plant response rating, Kochia (kochia [3]; 125 g ai/ha): 100
- Plant response rating, Kochia (kochia [3]; 250 g ai/ha): 100
- Radish, Wild plant response rating (radish, wild; Postemergence, 31 g ai/ha): 55
- Radish, Wild plant response rating (radish, wild; Postemergence, 125 g ai/ha): 65
- Radish, Wild plant response rating (radish, wild; Postemergence, 250 g ai/ha): 75
- Radish, Wild plant response rating (radish, wild; postemergence, 62 g ai/ha): 55
- Ryegrass, Italian plant response rating (ryegrass, Italian; Postemergence, 31 g ai/ha): 10
- Ryegrass, Italian plant response rating (ryegrass, Italian; Postemergence, 125 g ai/ha): 10
- Ryegrass, Italian plant response rating (ryegrass, Italian; Postemergence, 250 g ai/ha): 15
- Ryegrass, Italian plant response rating (ryegrass, Italian; postemergence, 62 g ai/ha): 10
- Chamomile plant response rating (chamomile; Postemergence, 31 g ai/ha): 55
- Chamomile plant response rating (chamomile; Postemergence, 125 g ai/ha): 60
- Chamomile plant response rating (chamomile; Postemergence, 250 g ai/ha): 65
- Chamomile plant response rating (chamomile; postemergence, 62 g ai/ha): 55
- Plant response rating, Buckwheat, Wild (buckwheat, wild; 31 g ai/ha): 35
- Plant response rating, Buckwheat, Wild (buckwheat, wild; 62 g ai/ha): 60
- Plant response rating, Buckwheat, Wild (buckwheat, wild; 125 g ai/ha): 100
- Plant response rating, Buckwheat, Wild (buckwheat, wild; 250 g ai/ha): 100
- Kochia plant response rating (kochia [4]; Postemergence, 31 g ai/ha): 70
- Kochia plant response rating (kochia [4]; Postemergence, 125 g ai/ha): 75
- Kochia plant response rating (kochia [4]; Postemergence, 250 g ai/ha): 85
- Kochia plant response rating (kochia [4]; postemergence, 62 g ai/ha): 70
- Speedwell plant response rating (speedwell [5]; Postemergence, 31 g ai/ha): 70
- Speedwell plant response rating (speedwell [5]; Postemergence, 125 g ai/ha): 75
- Speedwell plant response rating (speedwell [5]; Postemergence, 250 g ai/ha): 100
- Speedwell plant response rating (speedwell [5]; postemergence, 62 g ai/ha): 70
- Plant response rating, Field Violet (field violet; 62 g ai/ha): 25
- Plant response rating, Field Violet (field violet; 125 g ai/ha): 100
- Plant response rating, Field Violet (field violet; 250 g ai/ha): 100
- Lambsquarters plant response rating (lambsquarters; Postemergence, 31 g ai/ha): 50
- Lambsquarters plant response rating (lambsquarters; Postemergence, 125 g ai/ha): 60
- Lambsquarters plant response rating (lambsquarters; Postemergence, 250 g ai/ha): 80
- Lambsquarters plant response rating (lambsquarters; postemergence, 62 g ai/ha): 50
- Plant response rating, Speedwell (speedwell [6]; 62 g ai/ha): 100
- Plant response rating, Speedwell (speedwell [6]; 125 g ai/ha): 100
- Plant response rating, Speedwell (speedwell [6]; 250 g ai/ha): 100
- Plant response rating, Windgrass (windgrass [7]; 62 g ai/ha): 55
- Plant response rating, Windgrass (windgrass [7]; 125 g ai/ha): 75
- Plant response rating, Windgrass (windgrass [7]; 250 g ai/ha): 100

Compound: CCc1cc(C(=O)NCC(F)(F)F)nn1Cc1cccc(OC(F)(F)F)c1 [Compound 20]
- Windgrass plant response rating (windgrass [1]): 10
- Plant response rating, Windgrass (windgrass [2]): 40
